“Also recorded” adds a separate entry of the source. Like-named read-outs stand apart in the source and are kept apart here. Non-standard residues stand in square brackets, D forms with d. Residues, ends and D or L forms follow the SMILES beside them. No end group written: not given here. Nle = CCCC[C@H](N)C(=O)O
Key:
ENaC [1] = target: T1, ENaC (Homo sapiens, UniProt P51168); assay: Airway surface liquid (ASL) height in human bronchial epithelial cultures by XZ-confocal microscopy (ENaC-led fluid absorption); format: cell-based; details: for potency in ASL height dose response relative to S18: dose responses in airway cultures (FIGS. 3A-3B, 4); for efficacy in ASL height dose response relative to S18: dose responses in airway cultures (FIGS. 3A-3B); for activity on inhibition of ENaC / preservation of ASL height, compared with S18: peptides added mucosally to HBECs at 30 μM, ASL height measured 3 h later (FIG. 2)
T1 construct: endogenous in cells; host or cells: primary human bronchial epithelial cultures (HBECs) at air-liquid interface
T1 sequence (P37088 whole entry partner): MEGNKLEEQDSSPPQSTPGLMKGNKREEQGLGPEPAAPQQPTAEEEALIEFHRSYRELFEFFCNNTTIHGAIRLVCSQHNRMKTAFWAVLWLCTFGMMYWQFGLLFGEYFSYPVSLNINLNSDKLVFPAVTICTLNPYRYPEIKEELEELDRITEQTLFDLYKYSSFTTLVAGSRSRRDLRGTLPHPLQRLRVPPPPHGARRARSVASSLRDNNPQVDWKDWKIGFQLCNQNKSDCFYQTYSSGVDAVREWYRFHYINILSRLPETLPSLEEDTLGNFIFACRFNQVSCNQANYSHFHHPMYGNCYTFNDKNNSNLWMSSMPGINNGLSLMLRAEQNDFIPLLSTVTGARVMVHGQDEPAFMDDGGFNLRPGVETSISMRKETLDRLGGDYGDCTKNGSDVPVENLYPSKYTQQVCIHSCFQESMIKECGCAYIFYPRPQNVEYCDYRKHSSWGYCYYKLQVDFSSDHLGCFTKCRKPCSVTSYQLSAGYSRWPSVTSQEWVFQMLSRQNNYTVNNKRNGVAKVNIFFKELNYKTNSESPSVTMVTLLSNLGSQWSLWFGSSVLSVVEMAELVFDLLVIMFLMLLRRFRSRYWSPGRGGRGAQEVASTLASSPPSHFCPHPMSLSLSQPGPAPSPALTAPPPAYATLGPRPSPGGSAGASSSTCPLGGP
T1 sequence (P51168 whole entry): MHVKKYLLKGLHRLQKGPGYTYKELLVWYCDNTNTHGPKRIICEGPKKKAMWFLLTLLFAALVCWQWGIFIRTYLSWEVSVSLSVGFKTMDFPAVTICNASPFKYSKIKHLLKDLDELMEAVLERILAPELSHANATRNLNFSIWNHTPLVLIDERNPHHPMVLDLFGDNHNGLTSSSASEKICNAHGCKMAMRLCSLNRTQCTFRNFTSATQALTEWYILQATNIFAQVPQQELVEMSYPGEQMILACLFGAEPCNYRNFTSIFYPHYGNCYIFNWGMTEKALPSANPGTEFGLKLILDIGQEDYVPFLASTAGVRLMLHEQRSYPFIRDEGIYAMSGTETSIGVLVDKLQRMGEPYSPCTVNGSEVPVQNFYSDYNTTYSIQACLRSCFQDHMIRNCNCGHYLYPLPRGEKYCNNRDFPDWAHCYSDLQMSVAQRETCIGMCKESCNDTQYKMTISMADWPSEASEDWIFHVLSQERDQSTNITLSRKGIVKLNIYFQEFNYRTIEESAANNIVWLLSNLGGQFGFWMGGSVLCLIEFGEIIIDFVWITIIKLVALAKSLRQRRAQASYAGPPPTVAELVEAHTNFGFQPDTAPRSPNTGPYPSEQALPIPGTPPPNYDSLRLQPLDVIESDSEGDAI
T1 sequence (P51170 whole entry partner): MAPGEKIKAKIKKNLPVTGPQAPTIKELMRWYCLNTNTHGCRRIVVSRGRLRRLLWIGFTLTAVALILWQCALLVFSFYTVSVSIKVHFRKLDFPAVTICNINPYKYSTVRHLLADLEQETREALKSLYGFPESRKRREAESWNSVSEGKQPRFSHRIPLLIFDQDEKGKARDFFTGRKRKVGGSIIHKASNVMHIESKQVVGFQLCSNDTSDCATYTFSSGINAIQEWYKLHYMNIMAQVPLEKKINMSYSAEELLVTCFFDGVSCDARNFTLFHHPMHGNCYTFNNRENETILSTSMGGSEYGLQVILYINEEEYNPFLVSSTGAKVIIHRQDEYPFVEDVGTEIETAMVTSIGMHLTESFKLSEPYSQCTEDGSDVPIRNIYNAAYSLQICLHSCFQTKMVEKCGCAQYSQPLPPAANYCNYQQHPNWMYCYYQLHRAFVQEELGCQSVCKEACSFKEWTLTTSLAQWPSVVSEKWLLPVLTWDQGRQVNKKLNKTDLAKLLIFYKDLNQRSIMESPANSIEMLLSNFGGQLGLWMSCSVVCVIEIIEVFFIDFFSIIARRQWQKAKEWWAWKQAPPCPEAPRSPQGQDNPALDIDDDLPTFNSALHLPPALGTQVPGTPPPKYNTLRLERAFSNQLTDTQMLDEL
From the text: Cells were harvested by enzymatic digestion from human bronchial tissue as previously described under a protocol approved by the UNC School of Medicine IRB (Tarran et al., J. Gen. Physiol. 127:591 (2006)). Human excess donor lungs and excised recipient lungs were obtained at the time of lung transplantation from portions of main stem or […] bronchi and cells were harvested by enzymatic digestion. All preparations were maintained at an air-liquid interface in a modified bronchial epithelial medium and used 2-5 weeks after seeding on 12 mm T-Clear inserts (Corning Costar) coated with human placental type VI collagen (Sigma). Phosphate buffered saline (PBS) was used for washing human bronchial epithelial culture mucosal surfaces.
To label airway surface liquid, Ringer containing Texas Red-dextran (2 mg/ml; Invitrogen) was added to human bronchial epithelial culture mucosal surfaces. Perfluorocarbon was added mucosally to prevent evaporation of the airway surface liquid and the culture placed in a chamber containing 100 μl Ringer on the stage of a Leica SP8 confocal microscope with a 63× glycerol immersion objective. 10 points per culture were scanned and an average airway surface liquid height determined. For confocal microscopy human bronchial epithelial cultures were bathed serosally in a modified Ringer solution containing (mM): 116 NaCl, 10 NaHCO3, 5.1 KCl, 1.2 CaCl2, 1.2 MgCl2, 20 TES, 10 glucose, pH 7.4). At all other times, human bronchial epithelial cultures were maintained in a modified BEGM growth medium which contained 24 mM NaHCO3 gassed with 5% CO2. Perfluorocarbon (FC-77) was obtained from 3M and had no effect on ASL height as previously reported.
D-alanines are noted as lowercase a. All n=6-9. Data are shown as mean±SEM.

βENaC-Tg mice = format: in vivo
From the text: Like CF patients, βENaC-Tg mice are disease free at birth, but soon develop obstructive lung disease (Zhou, Z., et al. Am J Respir Crit Care Med 178, 1245-1256 (2008)). C57BL:FVB and C57BL:C3H mixed strains have 90% and 50% mortality, respectively, and the reproducibility of the disease on these backgrounds is sufficiently high that reliable data are produced with n of about 8-10 animals/group. Furthermore, the βENaC-Tg mouse responds to therapeutic interventions in a fashion similar to CF/COPD in humans, and the development of lung disease can be prevented following inhibition of lung disease at birth (Livraghi, A., et al. J Immunol 182, 4357-4367 (2009)). S18-derived peptides or vehicle were dosed one to three times a day by intranasal instillation (1 μl/g body weight) for 14 days in parallel cohorts of mice. Mice were weighed daily and, if a diuretic effect was found, the volume excreted was replaced by sub-cutaneous injections of sterile saline. At the end of the treatment, mice were sacrificed for phenotypic analysis.

Heat stability = format: physicochemical
ENaC [2] = target: T1, ENaC; details: previously demonstrated (Hobbs et al., 2013); cited from earlier work
[3] = βENaC-Tg C57BL:C3H mice, fourteen-day treatment (FIGS. 7C, 7D, 7F)

CCCC[C@H](NC(=O)[C@@H]1CCCN1C(=O)[C@H](CC(C)C)NC(=O)[C@@H](C)NC(=O)[C@@H](C)N)C(=O)N1CCC[C@H]1C(=O)N[C@@H](CC(C)C)C(=O)N[C@@H](CC(=O)O)C(=O)N[C@@H](CCC(N)=O)C(=O)N[C@H](C(=O)N[C@H](C)C(=O)N[C@H](C)C(N)=O)[C@@H](C)O [SEQ ID NO:5, aaLPNlePLDQTaa] (H-[dA][dA]LP[Nle]PLDQT[dA][dA]-NH2; N-terminus assumed)
IC50 (ENaC [1]; additional dose response, fresh batch of airway cells (FIG. 4)): 30 nM
potency in ASL height dose response relative to S18 (ENaC [1]): log-fold increase in potency; also recorded: significant increase in potency; also recorded: increased potency

CC[C@H](C)[C@H](NC(=O)[C@@H]1CCCN1C(=O)[C@H](CC(C)C)NC(=O)[C@@H](C)NC(=O)[C@@H](C)N)C(=O)N1CCC[C@H]1C(=O)N[C@@H](CC(C)C)C(=O)N[C@@H](CC(=O)O)C(=O)N[C@@H](CCC(N)=O)C(=O)N[C@H](C(=O)N[C@H](C)C(=O)N[C@H](C)C(N)=O)[C@@H](C)O [SEQ ID NO:128, aaLPIPLDQTaa] (H-[dA][dA]LPIPLDQT[dA][dA]-NH2)
percent survival (βENaC-Tg mice; [3]): increased percent survival
percent survival (βENaC-Tg mice; βENaC-Tg C57BL:C3H mice, once daily dosing (FIG. 7E left panel)): increased percent survival
percent survival (βENaC-Tg mice; βENaC-Tg C57BL:FVB mice, fourteen-day treatment, inhaled (FIG. 7B)): more effective than inhaled SEQ ID NO:142

aaLPVPLDQTLPLNVNPaa ([dA][dA]LPVPLDQTLPLNVNP[dA][dA]-NH2; N-terminus assumed; SMILES CC(C)C[C@H](NC(=O)[C@@H]1CCCN1C(=O)[C@H](CC(C)C)NC(=O)[C@@H](NC(=O)[C@H](CCC(N)=O)NC(=O)[C@H](CC(=O)O)NC(=O)[C@H](CC(C)C)NC(=O)[C@@H]1CCCN1C(=O)[C@@H](NC(=O)[C@@H]1CCCN1C(=O)[C@H](CC(C)C)NC(=O)[C@@H](C)NC(=O)[C@@H](C)N)C(C)C)[C@@H](C)O)C(=O)N[C@@H](CC(N)=O)C(=O)N[C@H](C(=O)N[C@@H](CC(N)=O)C(=O)N1CCC[C@H]1C(=O)N[C@H](C)C(=O)N[C@H](C)C(N)=O)C(C)C) [SEQ ID NO:2, a = D-alanine]
efficacy in ASL height dose response relative to S18 (ENaC [1]): equal potency and efficacy
potency in ASL height dose response relative to S18 (ENaC [1]): equal potency

H-LPVPLDQT-NH2 [SEQ ID NO:113, LPVPLDQT]
activity on inhibition of ENaC / preservation of ASL height, compared with S18 (ENaC [1]): retained similar activity to 518; also recorded: required for inhibition of ENaC and preservation of ASL height

DQTLPLNVNP (also: C-terminal amide, amidation at residue 8) [SEQ ID NO:114]
activity on inhibition of ENaC / preservation of ASL height, compared with S18 (ENaC [1]): inactive

aaLPVPLDQTaa ([dA][dA]LPVPLDQT[dA][dA]-NH2; N-terminus assumed; SMILES CC(C)C[C@H](NC(=O)[C@@H]1CCCN1C(=O)[C@@H](NC(=O)[C@@H]1CCCN1C(=O)[C@H](CC(C)C)NC(=O)[C@@H](C)NC(=O)[C@@H](C)N)C(C)C)C(=O)N[C@@H](CC(=O)O)C(=O)N[C@@H](CCC(N)=O)C(=O)N[C@H](C(=O)N[C@H](C)C(=O)N[C@H](C)C(N)=O)[C@@H](C)O) [SEQ ID NO:3, a = D-alanine]
efficacy in ASL height dose response relative to S18 (ENaC [1]): did not affect its potency or efficacy; also recorded: equal potency and efficacy
potency in ASL height dose response relative to S18 (ENaC [1]): identical dose responses; also recorded: equal potency

aaLPVPNleDQTaa [SEQ ID NO:6]
efficacy in ASL height dose response relative to S18 (ENaC [1]): diminished

SEQ ID NO:127: NH3-L-P-I-P-L-D-Q-T-NH2 (H-LPIPLDQT-NH2)
percent survival (βENaC-Tg mice; [3]): increased percent survival

H-GGLPVPLDQTLPLNVNPA-NH2 [S18]
heat stability (Heat stability): heat-stable
EC50 of ENaC inhibition (ENaC [2]): sub micromolar range
duration of ENaC inhibition following a single dose (ENaC [2]): up to 24 h

aaLPVPLDQSaa ([dA][dA]LPVPLDQS[dA][dA]-NH2; N-terminus assumed; SMILES CC(C)C[C@H](NC(=O)[C@@H]1CCCN1C(=O)[C@@H](NC(=O)[C@@H]1CCCN1C(=O)[C@H](CC(C)C)NC(=O)[C@@H](C)NC(=O)[C@@H](C)N)C(C)C)C(=O)N[C@@H](CC(=O)O)C(=O)N[C@@H](CCC(N)=O)C(=O)N[C@@H](CO)C(=O)N[C@H](C)C(=O)N[C@H](C)C(N)=O) [SEQ ID NO:9, a = D-alanine]
potency in ASL height dose response relative to S18 (ENaC [1]): diminished potency
